Data set [1] deals with SDMA. The experiment in a line: SDMA Inhibition Assay in HCT-116 cells. The format is cell-based. Conditions: Homo sapiens, HCT-116, 96 hours. How it is done:
(§1) The next day, the cells were treated with the compounds at different concentrations (with an initial concentration of 10 µM, 5-fold dilution, 9 concentration gradients). After 96 hours, the culture medium was pipetted out and the cells were washed 2 times with 100 µL of PBS. The cells were then fixed with 4% paraformaldehyde and incubated at room temperature for 20 min. The fixative solution was discarded, and the cells were washed with PBS. 150 µL of specialized blocking solution (containing 1% Triton-100) was added to each well for blocking at room temperature for 2 hours, and the plate was washed with PBS to remove excess blocking solution. […] The cells were incubated at 4 °C overnight. The next day, the cells were separately washed 2 times with 1× PBST. […] The cells were incubated at room temperature for 2 hours. The cells were washed 2 times with 1× PBST and 1 time with PBS. Fluorescence signals at 700 nm and 800 nm were separately detected using a Li-COR Odyssey two-color near-infrared laser imager. The inhibition rates were calculated, and the EC50 values were determined by fitting using the GraphPad Prism 7.0 software. Table 3. Inhibition of SDMA by test compounds

In the next data set the test system is HCT-116-MTAP^-/-. The experiment in a line: CCK8 proliferation inhibition, HCT-116-MTAP^-/-. The format is cell-based. Conditions: Homo sapiens, 192 h; HCT-116-MTAP^-/- (MTAP-deficient); CCK8, 8 days after drug treatment. How it is done: (§2) The above normally growing cells were digested with a cell trypsinization solution, centrifuged, counted, and seeded into a 96-well plate at an appropriate cell density (2000 cells/well) at 100 µL/well. The next day after cell seeding, the compounds at different concentrations were added to the wells. Three replicate wells were set for each concentration point, and a corresponding DMSO negative control group was also set. CCK8 solution was added to each well 8 days after drug treatment. The plate was incubated at 37 °C for a period of time (OD450 of the vehicle group reached 1.0 or higher) before the absorbance at 450 nm was read using a microplate reader. The inhibition rates were calculated, and the EC50 values were determined by fitting using the GraphPad Prism 7.0 software. Table 2. EC50 values of compounds at cellular level

The subject of data set [2] is SDMA. Put plainly: SDMA Inhibition Assay in HCT-116-MTAP^-/- cells. The format is cell-based. The following applies: Homo sapiens, 96 hours. How it is done: as §1
For a further data set, the system named is HCT-116. The experiment in a line: CCK8 proliferation inhibition, HCT-116. The format is cell-based. Conditions: Homo sapiens, 192 h, CCK8, 8 days after drug treatment. How it is done: as §2
Data set [3] in a line: Mouse brain-to-blood and tumor tissue-to-blood drug concentration ratio (PC-9 tumor-bearing mice). Conditions: 5 mg/kg PO, PC-9 tumor-bearing mice. The format is in vivo, Balb/c-nude female mice. How it is done:
Human lung cancer PC-9 cells were cultured in monolayer in vitro using the 1640 culture medium (HyClone) containing 10% fetal bovine serum (BI) and 1% penicillin and streptomycin (Beyotime) in an incubator at 37 °C with 5% CO2. The cells were digested with trypsin 2 to 3 times weekly for passaging. When the saturation degree of the cells was 80% to 90%, the cells were collected, counted, and inoculated. 5 × 10^6 (0.2 mL, 1:1 gel addition) PC-9 cells were subcutaneously inoculated into the right back of Balb/c-nude female mice, and the mice were used for subsequent PK and tissue distribution experiments after the mean tumor volume reached about 500 mm^3. On the day of administration, mice were weighed for actual body weight and the administration volume was calculated. In each group of 9 mice, the compound was administered by single intravenous injection or oral gavage. Whole blood samples were collected via the orbit at prescribed time points. After the blood sample collection, the samples were immediately transferred to labeled commercial sample tubes containing K2-EDTA (0.85 to 1.15 mg), followed by centrifugation (3200× g, 4 °C, 10 min) and plasma collection. The plasma was transferred to a pre-cooled centrifuge tube, frozen in dry ice, and then stored in an ultra-low temperature freezer at -60 °C or lower until the LC-MS/MS analysis was performed. Tumor and brain tissues were collected after the animals were euthanized using CO2 at prescribed time points, frozen in liquid nitrogen, and stored in an ultra-low temperature freezer at -60 °C or lower until the LC-MS/MS analysis was performed. 20 µL of the plasma sample or brain/tumor tissue homogenate was added to 80 µL of an internal standard solution (a 50 ng/mL solution of propafenone in acetonitrile). The plate was sealed using a film sealer at 165 °C, shaken on a micro oscillator (at the maximum vibration speed) for 10 min, and centrifuged at 4000 rpm for 20 min using a low-speed benchtop centrifuge; 10 µL of the supernatant was transferred and added to 90 µL of acetonitrile. The mixture was vortexed and mixed well, and then the plate was sealed using the film sealer at 165 °C. After the mixture was vortexed and mixed well, 1 µL of the supernatant was subjected to LC-MS/MS analysis.
• Brain-to-blood drug concentration ratio of mice at the same time point = drug concentration in brain tissue/drug concentration in plasma • Tumor tissue-to-blood drug concentration ratio of mice at the same time point = drug concentration in tumor tissue/drug concentration in plasma

For data set [4], the system named is SDMA. Put plainly: SDMA Inhibition Assay in A549 cells. The format is cell-based. Conditions: Homo sapiens, A549, 96 hours. How it is done: as §1
A further data set concerns A549. The experiment in a line: CCK8 proliferation inhibition, A549. The following applies: Homo sapiens, 192 h, CCK8, 8 days after drug treatment. The format is cell-based. How it is done:
as §2

In a further data set the target is T1, CYP450 3A4 (Homo sapiens, UniProt P08684).
T1 construct: from tissue; host or cells: human liver microsomes
T1 sequence (P08684 whole entry): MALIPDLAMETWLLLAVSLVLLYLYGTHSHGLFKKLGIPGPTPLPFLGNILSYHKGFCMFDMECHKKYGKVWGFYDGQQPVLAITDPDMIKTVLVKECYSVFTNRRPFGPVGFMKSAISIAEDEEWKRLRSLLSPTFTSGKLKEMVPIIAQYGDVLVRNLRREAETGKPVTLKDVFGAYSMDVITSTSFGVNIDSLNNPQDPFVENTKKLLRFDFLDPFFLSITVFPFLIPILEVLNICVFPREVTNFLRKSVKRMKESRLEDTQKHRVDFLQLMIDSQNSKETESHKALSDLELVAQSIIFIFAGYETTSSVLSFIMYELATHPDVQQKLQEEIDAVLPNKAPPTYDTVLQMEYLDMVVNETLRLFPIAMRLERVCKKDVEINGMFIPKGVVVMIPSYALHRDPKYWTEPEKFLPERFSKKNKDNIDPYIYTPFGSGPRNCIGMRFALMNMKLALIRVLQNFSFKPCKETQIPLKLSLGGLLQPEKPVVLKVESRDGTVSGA
Put plainly: Inhibition of human liver microsome CYP450 enzyme 3A4. The following applies: human, microsomes, pH 7.4. The format is in vitro ADME. How it is done:
100 mM K-Buffer: 9.5 mL of stock solution A was mixed with 40.5 mL of stock solution B, the total volume was adjusted to 500 mL with ultrapure water, and the buffer was titrated to pH 7.4 with KOH or H3PO4. • Starting material A (1 M potassium dihydrogen phosphate): 136.5 g of potassium dihydrogen phosphate in 1 L of water; • Stock solution B ([…]): 174.2 g of potassium dihydrogen phosphate in 1 L of water.
The test substance powder was prepared into a stock solution at a certain concentration with DMSO or another organic solvent, which was then further diluted with a suitable organic solvent.
The liver microsomal in vitro incubation system for the CYP450 enzyme metabolism phenotype study was a biochemical reaction of the prepared liver microsomes supplemented with a redox coenzyme and an enzyme-specific selective inhibitor under simulated physiological temperature and physiological environment conditions.
The concentration of the parent drug or a metabolite thereof in the incubation solution was determined by LC-MS/MS. and the IC50 value was calculated.
(Liver microsomes are a subcellular fraction often used to study metabolism.)

The next data set has as its system NCI-H838 cells. The experiment in a line: Pharmacodynamic study, NCI-H838 subcutaneous xenograft. The format is in vivo, mouse. How it is done:
Human non-small cell lung cancer NCI-H838 cells were cultured in monolayer in vitro using the McCoy 5A culture medium (HyClone) containing 10% fetal bovine serum (BI) and 1% penicillin and streptomycin (Beyotime) in an incubator at 37 °C with 5% CO2. The cells were digested with trypsin 2 to 3 times weekly for passaging. When the saturation degree of the cells was 80% to 90%, the cells were collected, counted, and inoculated. 5 × 10^6 (0.1 mL) NCI-H838 cells were subcutaneously inoculated on the right back of each mouse. On about day 29 after inoculation of the cells, the mean tumor volume reached 156 mm^3. The mice were randomly grouped for administration (the animals were divided into an administration group and a control group, with 6 animals in each group). The day of grouping was designated as d0, and intragastric administration was started on d1. The administration was performed once daily at an administration volume of 10 mL/kg. Vehicle control was administered to the control group. The tumor volume was measured 2 to 3 times weekly, and meanwhile, the mice were weighed and the data were recorded; daily observations were made to record the body surface signs of the mice. After the experiment was completed, the tumors were collected, weighed, and photographed for recording.
Calculation formula for tumor volume: Tumor volume (mm^3) = 1/2 × (a×b^2) [formula] (note: a represents long diameter and b represents short diameter) [formula]

The term EC50 denotes the concentration that produces a half-maximal response. The low end stands for a more potent agent, the high end for a less potent agent. For the compound `Cn1ncc2c(N)nc3cnc(C(=O)N4CCN(C5CC5)CC4c4ccc5c(c4)OC(F)(F)O5)cc3c21` (racemic) [Example I-112], the half-maximal effective concentration (EC50) with SDMA [1] was 285 nM; in the data set with HCT-116-MTAP^-/- it was 57 nM; in the data set on SDMA [2], 2.9 nM; in the data set with HCT-116, above 10000 nM. For the same compound, the “Brain-to-blood drug concentration ratio” value in data set [3] (1 h) worked out at 1.17; in data set [3] (4 h), 3.05. Further, the “Drug concentration in blood” value in [3] (1 h) turned out to be 220 ng/mL; in [3] (4 h), 10.3 ng/mL. The “Drug concentration in brain” value in data set [3] (1 h) came to 258 ng/mL; in data set [3] (4 h) it was 31.3 ng/mL. Moreover, the “Drug concentration in tumor tissue” value worked out at 346 ng/mL in data set [3] (1 h) and 93 ng/mL in data set [3] (4 h). Moreover, the “Tumor tissue-to-blood drug concentration ratio” value in [3] (1 h) is given as 1.57; in data set [3] (4 h) it was 9.05.

Take `Cn1ncc2c(N)nc3cc(F)c(C(=O)N(Cc4ccc5c(c4)OC(F)(F)O5)C4COC4)cc3c21` [Example I-29]: the half-maximal effective concentration (EC50) amounted to 292 nM in the data set on SDMA [1]; 2.7 nM in the data set on SDMA [4]; 50.6 nM in the data set on A549; 6.1 nM with HCT-116-MTAP^-/-; 2.6 nM with SDMA [2]; 1210 nM with HCT-116.

Regarding `Cn1ncc2c(N)nc3cc(F)c(C(=O)N(Cc4ccc5c(c4)OC(F)(F)O5)C[C@H]4COCCO4)cc3c21` [Example I-30], the 50% effective concentration (EC50) in the data set with SDMA [1] was determined as 125 nM; in the data set with SDMA [4], 1.9 nM; with A549 it was 38.5 nM; with HCT-116-MTAP^-/-, 6.4 nM; in the data set with SDMA [2], 2 nM; with HCT-116, 411 nM.

Regarding `CC1OCc2c1c(N)nc1cc(F)c(C(=O)N3CCOC[C@@H]3c3ccc4c(c3)OC(F)(F)O4)cc21` (stereo partly drawn) [Example I-34], the concentration giving a half-maximal response (EC50) with SDMA [1] was determined as 293 nM; in the data set on SDMA [4], 2.8 nM; in the data set on A549, 70.8 nM; in the data set with HCT-116-MTAP^-/- it was 9 nM; with SDMA [2] it was 3.1 nM; with HCT-116, 1630 nM.

As a reminder, the IC50 is the point on the concentration scale where inhibition reaches its midpoint. Low values mean greater potency, high ones weaker potency. Consider `Cn1ncc2c(N)nc3cnc(C(=O)N(Cc4ccc5c(c4)OC(F)(F)O5)C4CC4)cc3c21` [Example I-37], for which the EC50 in the data set on SDMA [1] turned out to be 205 nM; with SDMA [4], 2.7 nM; with A549, 72.7 nM; in the data set with HCT-116-MTAP^-/-, 10.1 nM; with SDMA [2] it was 1.9 nM; in the data set on HCT-116 it was 545 nM. The IC50 against CYP450 3A4 is above 10000 nM. In addition, the “Day 31 TGI” value was 58% in the data set with NCI-H838 cells (10 mpk PO QD), 71% in the data set with NCI-H838 cells (30 mpk PO QD) and 104% with NCI-H838 cells (100 mpk PO QD).

Turning to `Cn1ncc2c(N)nc3cc(C#N)c(C(=O)N4CCOC[C@@H]4c4ccc5c(c4)OC(F)(F)O5)cc3c21` [Example I-53], the EC50 in the data set on SDMA [1] worked out at 68.7 nM; with SDMA [4] it was 1 nM; in the data set on A549 it was 15.5 nM; with HCT-116-MTAP^-/-, 5.3 nM; in the data set on SDMA [2] it was 0.7 nM; with HCT-116, 210 nM.

With `Cn1ncc2c(N)nc3cc(C#N)c(C(=O)N(Cc4ccc5c(c4)OC(F)(F)O5)C4CC4)cc3c21` [Example I-54], the concentration giving a half-maximal response (EC50) in the data set with SDMA [1] was found to be 61.7 nM; in the data set on SDMA [4] it was 1.3 nM; in the data set with A549, 28.9 nM; with HCT-116-MTAP^-/- it was 4.2 nM; with SDMA [2] it was 1.8 nM; with HCT-116, 672 nM.

On to `Cn1ncc2c(N)nc3cc(F)c(C(=O)N4CCCC[C@@H]4c4ccc5c(c4)OC(F)(F)O5)cc3c21` [Example I-80], for which the half-maximal effective concentration (EC50) in the data set on SDMA [1] worked out at 65 nM; in the data set with SDMA [4] it was 2.2 nM; in the data set on A549, 12.8 nM; in the data set on HCT-116-MTAP^-/- it was 4.7 nM; with SDMA [2], 0.9 nM; in the data set with HCT-116 it was 201 nM.

As to `Cn1ncc2c(N)nc3cnc(C(=O)N4CCCC[C@@H]4c4ccc5c(c4)OC(F)(F)O5)cc3c21` [Example I-111], the 50% effective concentration (EC50) with SDMA [1] is 254 nM; in the data set on SDMA [4] it was 1.6 nM; with A549 it was 77 nM; with HCT-116-MTAP^-/-, 15 nM; in the data set with SDMA [2] it was 1 nM; in the data set with HCT-116 it was 2170 nM.

Values taken from patent EP4700025A1, “AMIDE COMPOUND, PHARMACEUTICAL COMPOSITION COMPRISING SAME, AND USE THEREOF” (Suzhou Genhouse Bio Co., Ltd., priority 2023, dated 2024).
